Patent US8106099B2, “Combination of phenylcarboxamides with blockers of the IKr channel and their use for the treatment of atrial arrhythmias” (Sanofi-Aventis Deutschland GmbH, priority 2003, dated 2012)
“Also recorded” adds a separate entry of the source.

Assays:
[1] = test system: normal and remodeled atria of goats; assay: Investigation of the refractory period (AERP) in normal goats and in goats with remodeled atria; assay type: in vivo; details: for effect on the AERP in remodeled atrium compared with normal atrium: remodeled versus normal atrium
Protocol: Investigation of the Refractory Period in Normal Goats and in Goats with Remodeled Atria
This electrical remodeling, which reflects the situation in the patient, was achieved by repetitive atrial stimulations as published by Wijffels et al. (Atrial fibrillation begets atrial fibrillation. A study in awake chronical instrumented goats. Circulation 1995, 92, 1954-68).
In the monotherapy, 0.12 mg of ibutilide per kg of bodyweight was administered over the length of time of 60 minutes (0.002 mg per kg per minute).
A similar infusion scheme was carried out on 5 further animals with dofetilide instead of ibutilide. […] In the monotherapy, 0.12 mg of dofetilide per kg of bodyweight was administered over the length of time of 60 minutes (0.002 mg per kg per minute).

[2] = test system: goats in persistent atrial fibrillation; assay: Investigation of cardioversion and AFCL in chronically fibrillating goats (two goats); assay type: in vivo; details: for effect on the AFCL by the substance on its own (in words) / cardioversion / termination of persistent fibrillation by the substance on its own: persistent AF goat model; for cardioversion / termination of persistent fibrillation by the substance on its own: example 1 at 0.1-10 mg/kg/h in the goat of table 4
Protocol: Investigation of Cardioversion in Chronically Fibrillating Goats
Experiments were carried out on two goats which were in persistent atrial fibrillation of more than 45 days.
The measurements of the AFCL and of the cardioversion were carried out successively.

Row | SMILES | prolongation of the AERP ([1]; normal atria, n=5 goats, dofetilide study) [ms] | prolongation of the AERP ([1]; normal atria, n=7 goats, ibutilide study, relative to control before administration) [ms] | effective atrial refractory period (AERP), mean value ± SD ([1]; remodeled atria (induced AF 1 to 4 days), 7 goats, cycle length 400 ms, same infusion scheme with ibutilide) [ms] | effect on the AERP in remodeled atrium compared with normal atrium [1] | doses of the compound of example 1 that brought about cardioversion / termination of the atrial fibrillation ([2]; goat of table 3, monotherapy, or combination with ibutilide 2 mg/kg) | effect on the AFCL by the substance on its own (in words) [2] | cardioversion / termination of persistent fibrillation by the substance on its own [2] | dose of the Kv1.5 blocker of example 1 leading to cardioversion / termination of persistent fibrillation ([2]; summary in description, combination with very low doses (for example 10 μg/kg) of the IKr channel blocker) [mg/kg] | prolongation of the AERP ([1]; remodeled atria, n=7 goats, ibutilide study) [ms] | effect on the AFCL by the substance on its own (in words) ([2]; listed as ibutilide) | prolongation of the AERP ([1]; remodeled atria, n=5 goats, dofetilide study) [ms]
1 | COc1ccc(CC(=O)NCc2ccccc2-c2ccccc2C(=O)NCCc2cccnc2)cc1 [Example 1, 2′-{[2-(4-Methoxyphenyl)acetylamino]methyl}biphenyl-2-carboxylic acid (2-pyridin-3-ylethyl)amide] | 51 | 47 | 160 ± 16 | markedly greater | 10 mg per kg of bodyweight per ho | dose-dependent increase | not to cardioversion | 10 |  |  | 
2 | CCCCCCCN(CC)CCCC(O)c1ccc(NS(C)(=O)=O)cc1.O=C(O)/C=C/C(=O)O (centres unmarked) [Ibutilide] |  |  |  | markedly lower |  | very small increase | not to a termination of the fibrillation |  | 5 | slight prolongation | 
3 | CN(CCOc1ccc(NS(C)(=O)=O)cc1)CCc1ccc(NS(C)(=O)=O)cc1 [Dofetilide] |  |  |  | markedly lower |  | slight prolongation | a cardioversion does not occur; also recorded: not to a termination of the fibrillation |  |  |  | 7
